# Source: article PMC3954793, “SHP-2 Binds to Caveolin-1 and Regulates Src Activity via Competitive Inhibition of CSK in Response to H2O2 in Astrocytes” (PLoS ONE, 2014)
# “Also recorded” adds a separate entry of the source. Ends that are not written are not given here.
# Assays:
# FAK phosphorylation = test: Immunoblot of p-FAK; format: cell-based, human; settings: CRT-MG cells; PTPi IV 5 or 10 µM, 30 min; 5 mM H2O2, 10 min
# Procedure: (§1) Figure 7 SHP-2 and CSK reciprocally regulate H2O2-induced Src activation. […] Tubulin was evaluated as a loading control. Bottom panel, Densitometric quantification of p-Src Y419 levels (empty bars) and p-Src Y530 levels (filled bars), normalized to the level of total Src. Results are expressed as percentage of H2O2-treated values in control siRNA presented as mean ± SD. (*p<0.05 vs. H2O2-treated cells transfected with control siRNA; #p<0.05 between SHP-2 siRNA-transfected cells and CSK siRNA-transfected cells; n = 3). (B) Inhibition of SHP-2 by PTPi IV attenuated the H2O2-induced activation of the Src signaling pathway. CRT-MG cells were treated with 5 mM H2O2 or not for 10 min in the presence of 5 or 10 µM PTPi IV for 30 min, and lysed in cold-RIPA buffer. Antibodies against p-SHP-2, SHP-2, p-Src, Src, p-FAK, FAK, p-ERK, ERK, and tubulin were used for immunoblotting. Bottom panel, Densitometric quantification of p-Src Y419 levels (empty bars) and p-Src Y530 levels (filled bars), normalized to the level of total Src. […] (p, phospho).
# [1] = tested on: SHP-2 (Y542 and Y580 phosphorylation); test: Immunoblot of p-SHP-2 Y542 and Y580; format: cell-based, human; settings: CRT-MG cells; PTPi IV 5 or 10 µM, 30 min; 5 mM H2O2, 10 min
# Procedure: as §1
# [2] = tested on: Src (Tyr 419 phosphorylation); test: Immunoblot of p-Src Y419; format: cell-based, human; settings: CRT-MG cells; PTPi IV 0–10 µM, 30 min; 5 mM H2O2, 10 min; n = 3
# Procedure: (§2) Cells were plated and transfected with green fluorescence protein (GFP) siRNA (Samchully Pharm Co. Ltd., Seoul, Korea) as a control group and human CSK siRNA and human SHP-2 siRNA from Bioneer (Daejeon, Korea) using Lipofectamine RNAiMAX (Invitrogen, Carlsbad, CA, USA) according to the manufacturer’s instructions to achieve a final concentration of 300 nM.
# as §1
# ERK phosphorylation = test: Immunoblot of p-ERK; format: cell-based, human; settings: CRT-MG cells; PTPi IV 5 or 10 µM, 30 min; 5 mM H2O2, 10 min
# Procedure: as §2, §1
# [3] = tested on: Src (Tyr 530 phosphorylation); test: Immunoblot of p-Src Y530; format: cell-based, human; settings: CRT-MG cells; PTPi IV 0–10 µM, 30 min; 5 mM H2O2, 10 min; n = 3
# Procedure: as §2, §1
# recombinant GST-SHP-2 = biological target: T1, recombinant GST-SHP-2 (Homo sapiens, UniProt Q06124); test: Surface plasmon resonance, rGST-SHP-2; format: binding
# T1 construct: purchased Abnova (Taipei, Taiwan)
# T1 sequence (Q06124 1-593): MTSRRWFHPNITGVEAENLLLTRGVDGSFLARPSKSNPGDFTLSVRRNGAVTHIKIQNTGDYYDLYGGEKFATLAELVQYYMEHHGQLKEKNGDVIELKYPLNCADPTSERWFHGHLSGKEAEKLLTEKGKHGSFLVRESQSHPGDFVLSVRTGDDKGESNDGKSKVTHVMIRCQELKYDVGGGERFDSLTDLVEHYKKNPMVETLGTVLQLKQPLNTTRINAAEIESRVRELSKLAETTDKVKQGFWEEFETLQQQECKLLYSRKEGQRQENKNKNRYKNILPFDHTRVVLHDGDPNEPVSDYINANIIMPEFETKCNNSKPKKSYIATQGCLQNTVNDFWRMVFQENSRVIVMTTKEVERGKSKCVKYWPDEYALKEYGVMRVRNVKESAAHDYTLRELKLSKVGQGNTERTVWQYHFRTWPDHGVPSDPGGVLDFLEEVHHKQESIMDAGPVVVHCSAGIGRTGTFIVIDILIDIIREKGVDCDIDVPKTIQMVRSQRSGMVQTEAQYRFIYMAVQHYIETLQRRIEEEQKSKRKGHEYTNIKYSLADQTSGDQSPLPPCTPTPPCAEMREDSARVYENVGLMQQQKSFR
# Procedure: (§3) SPR was performed on a SPRmicro system (K-MAC, Daejeon, Korea). A G1 chip (bare surface gold chip) was dipped into a 3 mM N-hydroxylsuccinimide self-assembled monolayer to form covalent bonds among protein amine groups. After washing with ethanol, the chip was purged with N2 gas. Recombinant GST-SHP-2 or GST-CSK was mixed with 20% ethylene glycol and then spotted onto the chip. Ligands were reacted on room temperature for 12 h to allow the ligands to become fixed onto the chip. After the reaction, the […] by washing with 1×Tris-buffered saline (TBS), and purged with N2 gas. SPR signal baselines were stabilized using 1×TBS running buffer, and different dilutions of caveolin-1 phosphopeptides (Cav-1 pY 14, GHL-pY-TVPIREQGN) in buffer were injected at a flow rate of 20 µL/min. Response unit (RU) alterations following sample reactions were analyzed by comparing affinities to the chip surface. Experiments were conducted by switching from samples immobilized on the chip (Cav-1 pY 14) to injected samples (rGST-CSK or rGST-SHP-2). […] Equilibrium binding curves and RU values are shown.
# (§4) Figure 5 SPR and flow cytometric analyses of SHP-2 and CSK binding to phosphorylated-Tyr peptides of caveolin-1. […] After stringent wash, bound SHP-2 or CSK to caveolin-1 peptide conjugated beads were measured by Accuri C6 flow cytometer.
# recombinant GST-CSK = test: Surface plasmon resonance, rGST-CSK; format: binding; settings: rGST-CSK immobilized on G1 chip; peptide 10 to 1,000 µg/mL injected, 20 µL/min, 1×TBS; repeated twice
# Procedure: as §3, §4
# [4] = tested on: CSK binding to p-caveolin-1 peptide; test: Flow cytometric competitive binding assay (bound CSK on p-caveolin-1 peptide conjugated beads); design: species or system human; settings: 10 µg recombinant CSK with SHP-2 protein 1–100 µg; flow cytometry; repeated twice
# Procedure: (§5) Human SHP-2 and CSK fusion constructs were produced by consecutively subcloning the protein coding regions of SHP-2 and CSK into the pGEX-6P-1 vector (GE healthcare, Piscataway, NJ, USA). Using these constructs, human SHP-2 and CSK were overexpressed in Escherichia coli (BL21) as soluble. Briefly, the transformed bacteria were grown in LB medium with 0.1 mg/ml ampicillin at 37°C to an A600 of 0.6, and then cultured for an additional overnight at 27°C after being induced with 0.5 mM IPTG (Duchefa Biochemie, Netherlands). The cells were harvested by centrifugation at 8000 g for 20 min, resuspended in PBS pH 7.4, and then disrupted by ultrasonication. The supernatant was purified with glutathione agarose 4B (Incospharm, Daejeon, South Korea) in PBS pH 7.4. The bound proteins were eluted with a linear gradient 10 mM glutathione in 50 mM Tris (pH 8.0). All proteins were concentrated with a Centricon apparatus (Miliipore, Darmstadt, Germany). Proteins were quantitated with the Bradford assay, then filtered and stored at −70°C until use. […]
# Figure 6 Small interfering RNA targeting CSK facilitates H2O2-mediated binding between caveolin-1 and SHP-2. […] Fluorescent intensities were measured by Accuri C6 flow cytometer.
# recombinant CSK protein = test: Bead-based flow cytometric binding assay, CSK; design: species or system human; settings: caveolin-1 (1–50 a.a.) peptide on carboxyl beads; CSK protein 1–10 µg, 1 h, RT; flow cytometry; repeated twice
# Procedure: as §5, §4
# [5] = tested on: recombinant SHP-2 protein; test: Bead-based flow cytometric binding assay, SHP-2; design: species or system human; settings: caveolin-1 (1–50 a.a.) peptide on carboxyl beads; SHP-2 protein 1–10 µg, 1 h, RT; flow cytometry; repeated twice
# Procedure: as §5, §4
compound,measurement,setting,value
CC(C)(c1ccc(NS(=O)(=O)C(F)(F)F)cc1)c1ccc(C(C)(C)c2ccc(NS(=O)(=O)C(F)(F)F)cc2)cc1 [PTPi IV],FAK phosphorylation,FAK phosphorylation,strongly inhibited; also recorded: reduced
same,SHP-2 phosphorylation at Y542 and Y580,[1],significantly reduced
same,H2O2-mediated phosphorylation of Src at Tyr 419,[2],dose-dependent decrease
same,ERK phosphorylation,ERK phosphorylation,strongly inhibited; also recorded: reduced
same,H2O2-mediated phosphorylation of Src at Tyr 530,[3],no significant change
"GHL-pY-TVPIREQGN [Cav-1 pY 14, synthetic peptide phosphorylated at a Tyr residue corresponding to Tyr 14 of caveolin-1]","difference in kinetic rates or RUs, rGST-SHP-2 versus rGST-CSK","recombinant GST-SHP-2; rGST-SHP-2 compared with rGST-CSK, immobilized on G1 chip, peptide 10 to 1,000 µg/mL",no significant difference in their kinetic rates or RUs
same,SPR binding affinity,"recombinant GST-SHP-2; rGST-SHP-2 immobilized on G1 chip, peptide 10 to 1,000 µg/mL injected, 20 µL/min, 1×TBS, repeated twice",high affinity
same,SPR binding affinity,recombinant GST-CSK,high affinity
"SHP-2 protein: human SHP-2 overexpressed in Escherichia coli (BL21) from pGEX-6P-1, glutathione agarose purified",amount of bound CSK on p-caveolin-1 peptide conjugated beads,[4],reduced by adding increasing concentrations of SHP-2 protein
"p-caveolin-1 peptide: Fifty-amino acid-long synthetic peptides of caveolin-1 (1–50 a.a.) conjugated to carboxyl beads using EDC (MSGGKYVDSEGHLYTVPIREQGNIYKPNNKAMADELSEKQVYDAHTKEID; also: phosphorylated, sites not given here; UniProt Q03135 1-50, looked up, fragment)",binding of CSK to peptide conjugated beads,recombinant CSK protein,significantly bound
same,binding of SHP-2 to peptide conjugated beads,[5],significantly bound
